Assay: xn = mol fraction of the nth substance listed
Details: for speed of sound: 100 kPa, Pulse-echo method; for speed of sound / viscosity / mass density: Liquid; for viscosity / mass density: 101 kPa; for viscosity: Concentric cylinders viscometry; for mass density: Vibrating tube method; for surface tension liquid-gas: 294.7 K, Drop volume

CC(CC(C)(C)C)CC(C)(C)CC(C)(C)C (stereo not given) [2,2,4,4,6,8,8-heptamethylnonane] + CCCCCCCCCCCC
Details | mass density [kg/m3] | speed of sound [m/s] | viscosity [mPa·s]
293.15 K, x1 = 0.103 | 753.263 | 1295.6 | 1.59
293.15 K, x1 = 0.1677 | 756.137 | 1294.1 | 1.67
293.15 K, x1 = 0.2944 | 761.09 | 1292 | 1.84
293.15 K, x1 = 0.4191 | 765.497 | 1290.5 | 2.03
293.15 K, x1 = 0.5011 | 768.604 | 1289.5 | 2.19
293.15 K, x1 = 0.5955 | 771.819 | 1288.5 | 2.4
293.15 K, x1 = 0.7585 | 777.128 | 1287.2 | 2.83
293.15 K, x1 = 0.8985 | 781.527 | 1286.3 | 3.29
293.15 K, x1 = 1 | 784.457 | 1285.7 | 3.7
303.15 K, x1 = 0.103 | 746.092 | 1257.5 | 1.32
303.15 K, x1 = 0.1677 | 749.065 | 1256.2 | 1.39
303.15 K, x1 = 0.2944 | 754.068 | 1254.3 | 1.53
303.15 K, x1 = 0.4191 | 758.54 | 1252.9 | 1.67
303.15 K, x1 = 0.5011 | 761.702 | 1252 | 1.8
303.15 K, x1 = 0.5955 | 764.964 | 1251 | 1.95
303.15 K, x1 = 0.7585 | 770.346 | 1249.8 | 2.28
303.15 K, x1 = 0.8985 | 774.79 | 1248.9 | 2.62
303.15 K, x1 = 1 | 777.761 | 1248.5 | 2.92
313.15 K, x1 = 0.103 | 738.895 | 1219.8 | 1.12
313.15 K, x1 = 0.1677 | 741.921 | 1218.7 | 1.17
313.15 K, x1 = 0.2944 | 747.011 | 1217 | 1.28
313.15 K, x1 = 0.4191 | 751.556 | 1215.7 | 1.4
313.15 K, x1 = 0.5011 | 754.77 | 1214.9 | 1.5
313.15 K, x1 = 0.5955 | 758.085 | 1214.1 | 1.63
313.15 K, x1 = 0.7585 | 763.538 | 1213 | 1.88
313.15 K, x1 = 0.8985 | 768.028 | 1212.2 | 2.14
313.15 K, x1 = 1 | 771.044 | 1211.8 | 2.37
323.15 K, x1 = 0.103 | 731.669 | 1182.8 | 0.966
323.15 K, x1 = 0.1677 | 734.749 | 1181.8 | 1.01
323.15 K, x1 = 0.2944 | 739.926 | 1180.3 | 1.1
323.15 K, x1 = 0.4191 | 744.546 | 1179.2 | 1.19
323.15 K, x1 = 0.5011 | 747.812 | 1178.5 | 1.27
323.15 K, x1 = 0.5955 | 751.18 | 1177.8 | 1.37
323.15 K, x1 = 0.7585 | 756.708 | 1176.8 | 1.57
323.15 K, x1 = 0.8985 | 761.266 | 1176.3 | 1.77
323.15 K, x1 = 1 | 764.316 | 1176 | 1.95
333.15 K, x1 = 0.103 | 724.407 | 1146.3 | 0.84
333.15 K, x1 = 0.1677 | 727.54 | 1145.4 | 0.877
333.15 K, x1 = 0.2944 | 732.805 | 1144.2 | 0.95
333.15 K, x1 = 0.4191 | 737.503 | 1143.3 | 1.03
333.15 K, x1 = 0.5011 | 740.821 | 1142.7 | 1.09
333.15 K, x1 = 0.5955 | 744.244 | 1142.2 | 1.17
333.15 K, x1 = 0.7585 | 749.858 | 1141.4 | 1.33
333.15 K, x1 = 0.8985 | 754.484 | 1141 | 1.49
333.15 K, x1 = 1 | 757.571 | 1140.8 | 1.63
343.15 K, x1 = 0.103 | 717.1 | – | 0.738
343.15 K, x1 = 0.1677 | 720.2 | – | 0.769
343.15 K, x1 = 0.2944 | 725.6 | – | 0.83
343.15 K, x1 = 0.4191 | 730.4 | – | 0.895
343.15 K, x1 = 0.5011 | 733.7 | – | 0.949
343.15 K, x1 = 0.5955 | 737.2 | – | 1.01
343.15 K, x1 = 0.7585 | 743 | – | 1.14
343.15 K, x1 = 0.8985 | 747.6 | – | 1.27
343.15 K, x1 = 1 | 750.7 | – | 1.39
353.15 K, x1 = 0.103 | 709.6 | – | 0.654
353.15 K, x1 = 0.1677 | 712.7 | – | 0.681
353.15 K, x1 = 0.2944 | 718.2 | – | 0.732
353.15 K, x1 = 0.4191 | 723.1 | – | 0.787
353.15 K, x1 = 0.5011 | 726.5 | – | 0.832
353.15 K, x1 = 0.5955 | 730.1 | – | 0.885
353.15 K, x1 = 0.7585 | 736 | – | 0.994
353.15 K, x1 = 0.8985 | 740.7 | – | 1.1
353.15 K, x1 = 1 | 743.8 | – | 1.19
363.15 K, x1 = 0.103 | 702 | – | 0.585
363.15 K, x1 = 0.1677 | 705.3 | – | 0.608
363.15 K, x1 = 0.2944 | 710.8 | – | 0.652
363.15 K, x1 = 0.4191 | 715.8 | – | 0.698
363.15 K, x1 = 0.5011 | 719.2 | – | 0.737
363.15 K, x1 = 0.5955 | 722.9 | – | 0.782
363.15 K, x1 = 0.7585 | 728.9 | – | 0.873
363.15 K, x1 = 0.8985 | 733.6 | – | 0.963
363.15 K, x1 = 1 | 736.8 | – | 1.04
373.15 K, x1 = 0.103 | 694.5 | – | 0.528
373.15 K, x1 = 0.1677 | 697.8 | – | 0.548
373.15 K, x1 = 0.2944 | 703.5 | – | 0.586
373.15 K, x1 = 0.4191 | 708.5 | – | 0.626
373.15 K, x1 = 0.5011 | 712 | – | 0.659
373.15 K, x1 = 0.5955 | 715.8 | – | 0.697
373.15 K, x1 = 0.7585 | 721.8 | – | 0.775
373.15 K, x1 = 0.8985 | 726.6 | – | 0.85
373.15 K, x1 = 1 | 729.9 | – | 0.914

Details | surface tension liquid-gas [mN/m]
x1 = 0.1677 | 24.8
x1 = 0.2944 | 24.9
x1 = 0.4191 | 24.6
x1 = 0.5011 | 24.6
x1 = 0.5955 | 24.3
x1 = 0.7585 | 24.2
x1 = 0.8985 | 24.2
x1 = 1 | 24

— the NIST ThermoML archive (doi:10.1021/je5000132)
